# Experimental data taken from US6602982B1, “Process for the preparation of regular glycopeptides” (Hokkaido Electric Power Company, Incorporated, priority 1998, dated 2003).
# Method: Aqueous solutions of the polymer of Example 5 having various concentrations were prepared, and the freezing point thereof was measured. The freezing point depression was measured with a light microscope with a temperature controller. Firstly, in order to remove any error in the measurement of freezing point due to supercooling, the whole system was previously frozen at −20° C., and then was carefully returned to 0° C. with attention not to dissolve completely the ice nucleus. Then, the system is gradually cooled with observing growth of ice crystal. The freezing point was deemed to be a point at which the growth of ice crystal was stopped and the whole system was frozen.
substance,measurement,setting,value
Olymer of L-Alanine-(β-D-galactopyranosyl)-(1→3)-(2-acetamido-2-deoxy-1-α-D-galactopyranosyl)-L-threonine-L-alanine [Example 5],growth of ice crystal,"aqueous solution, gradual cooling while observing ice crystal growth",inhibited the growth of ice crystal
same,freezing point depression activity,"aqueous solutions of various concentrations, compared with literature data for natural origin AFGP, FIG. 1",almost the same freezing point depression activity as that of the natural origin AFGP
